Experimental data published in US11666558B2, “Methods of treating intraocular pressure with activators of Tie-2” (EyePoint Pharmaceuticals, Inc., priority 2015, dated 2023).
Read-outs that look alike come from different tables or passages of the source.

Assay: Ocular tissue concentrations (aqueous humor, vitreous humor, iris, retina, choroid, cornea) after topical ocular, subcutaneous and intravitreal administration
Format: in vivo, New Zealand White rabbits
Conditions: New Zealand White, rabbit; for concentration at 6 h / concentration at 24 h / concentration at 48 h / concentration at 72 h: other: intravitreal, 2.5 mg/eye
Procedure: To measure the concentration of Compound 1 in plasma and ocular tissues following topical ocular, subcutaneous, and intravitreal administration, New Zealand White rabbits were administered Compound 1, and plasma and ocular samples were collected at pre-determined time points. Compound 1 formulations were prepared fresh on each day of dosing.
Ocular tissue samples from both eyes of each animal were collected and weights were recorded. Plasma and ocular tissue sample concentrations of Compound 1 were determined by LC-MS/MS.
New Zealand White rabbits weighing 2.5 to 3.5 kg were used on this study. Rabbits were housed one per cage. Animals were not fasted and only healthy animals with no ocular illness were used. Two rabbits per group were sacrificed at each of four ocular tissue sampling time points for a total of eight rabbits per group.
Animals were anesthetized for ocular (topical) and intravitreal dosing following the 12IA7 IACUC protocol. Each rabbit received a bolus dose of test formulation either via topical ocular administration 3 times daily on Days 1 and 2 (at 0, 6, and 12 hours), and once on Day 3 (at 0 hours) into both eyes; via intravitreal administration into both eyes once on Day 1 (at 0 hours); or via subcutaneous administration 2 times daily on Days 1 and 2 (at 0 and 8 hours) and once daily on Day 3 (at 0 hours). Doses were given within an approximately 1 hour window each day where applicable.
On Day 1, for intravitreal administration, or on Day 3, for topical ocular and subcutaneous administration, at the appropriate ocular tissue collection time points, animals were euthanized and both eyes were enucleated immediately. Following enucleation, each eye was rinsed with phosphate-buffered saline. Ocular tissue samples from both eyes of each animal were collected at predetermined time points and weights were recorded. All the samples were frozen immediately on dry ice, and stored at −60° C. to −80° C. pending bioanalysis.
An LC-MS/MS method was developed for the determination of Compound 1 in rabbit aqueous tissues (plasma, aqueous and vitreous humor) and solid ocular tissue samples. A pre-study standard curve was analyzed to determine the specificity, range, and lower limit of quantitation of the method. Plasma and tissue homogenate study samples were extracted and analyzed. All the samples were treated identically to the standards.
One eight-point standard curve was used in each analytical batch. To be accepted, each batch must have had at least five of eight standards with accuracy within ±20% of nominal, except at the lower limit of quantification (LLOQ), where ±25% was acceptable.
Concentration versus time data is plotted in FIGS. 3-16. All data are expressed as ng/g of the free drug. Samples that were below the limit of quantitation (0.2 ng/mL) were not used in the calculation of averages.

[1] = iris homogenate, Iris homogenate, OD, sodium salt, intravitreal 2.5 mg/eye, Group 4, read-out: Iris Conc. (ng/mL) OD
[2] = iris homogenate, Iris homogenate, OS, sodium salt, intravitreal 2.5 mg/eye, Group 4, read-out: Iris Conc. (ng/mL) OS
[3] = iris homogenate, Iris homogenate, left eye, intravitreal 2.5 mg/eye (group 5), individual animals, read-out: Conc. (ng/mL) OS
[4] = iris homogenate, Iris homogenate, right eye, intravitreal 2.5 mg/eye (group 5), individual animals, read-out: Conc. (ng/mL) OD
[5] = iris homogenate, subcutaneous, 5 mg/kg/dose, Iris homogenate, OD, sodium salt, subcutaneous 5 mg/kg/dose, Group 2, read-out: Iris Conc. (ng/mL) OD
[6] = iris homogenate, subcutaneous, 5 mg/kg/dose, Iris homogenate, OS, free acid, subcutaneous 5 mg/kg/dose, Group 3, read-out: Iris Conc. (ng/mL) OS
[7] = iris homogenate, subcutaneous, 5 mg/kg/dose, Iris homogenate, OS, sodium salt, subcutaneous 5 mg/kg/dose, Group 2, read-out: Iris Conc. (ng/mL) OS
[8] = iris homogenate, subcutaneous, 5 mg/kg/dose, TABLE 16: Iris homogenate, OS, free acid, subcutaneous 5 mg/kg/dose, Group 3, read-out: Iris Conc. (ng/mL) OS
[9] = iris, Iris, OD, sodium salt, intravitreal 2.5 mg/eye, Group 4, read-out: Iris Conc. (ng/g) OD
[10] = iris, Iris, OS, sodium salt, intravitreal 2.5 mg/eye, Group 4, read-out: Iris Conc. (ng/g) OS
[11] = iris, Iris, average, intravitreal 2.5 mg/eye (group 5), read-out: Avg.
[12] = iris, Iris, left eye, intravitreal 2.5 mg/eye (group 5), individual animals, read-out: Conc. (ng/g) OS
[13] = iris, Iris, right eye, intravitreal 2.5 mg/eye (group 5), individual animals, read-out: Conc. (ng/g) OD
[14] = iris, Iris, sodium salt, intravitreal 2.5 mg/eye, Group 4, read-out: Iris Avg.
[15] = iris, subcutaneous, 5 mg/kg/dose, Iris, OD, sodium salt, subcutaneous 5 mg/kg/dose, Group 2, read-out: Iris Conc. (ng/g) OD
[16] = iris, subcutaneous, 5 mg/kg/dose, Iris, OS, free acid, subcutaneous 5 mg/kg/dose, Group 3, read-out: Iris Conc. (ng/g) OS
[17] = iris, subcutaneous, 5 mg/kg/dose, Iris, free acid, subcutaneous 5 mg/kg/dose, Group 3, read-out: Iris Average
[18] = iris, subcutaneous, 5 mg/kg/dose, Iris, sodium salt, subcutaneous 5 mg/kg/dose, Group 2, read-out: Iris Average
[19] = iris, subcutaneous, 5 mg/kg/dose, Iris, OS, sodium salt, subcutaneous 5 mg/kg/dose, Group 2, read-out: Iris Conc. (ng/g) OS
[20] = iris, subcutaneous, 5 mg/kg/dose, TABLE 16: Iris, OS, free acid, subcutaneous 5 mg/kg/dose, Group 3, read-out: Iris Conc. (ng/g) OS
[21] = iris, subcutaneous, 5 mg/kg/dose, TABLE 16: Iris, free acid, subcutaneous 5 mg/kg/dose, Group 3, read-out: Iris Average

concentration at 4 h (cornea, subcutaneous, 5 mg/kg/dose, TABLE 16: Cornea, OD, free acid, subcutaneous 5 mg/kg/dose, Group 3, read-out: Cornea Conc. (ng/g) OD): 10.4 ng/g
concentration at 4 h (cornea, subcutaneous, 5 mg/kg/dose, TABLE 16: Cornea, free acid, subcutaneous 5 mg/kg/dose, Group 3, read-out: Cornea Average): 15.8 ng/g
concentration at 6 h [1]: 35500 ng/mL
concentration at 6 h [2]: 34000 ng/mL
concentration at 6 h [3]: 13800 ng/mL
concentration at 6 h [4]: 18500 ng/mL
concentration at 24 h [1]: 6890 ng/mL
concentration at 24 h [3]: 14100 ng/mL
concentration at 24 h [4]: 7670 ng/mL
concentration at 48 h [1]: 2380 ng/mL
concentration at 48 h [2]: 1960 ng/mL
concentration at 48 h [3]: 1950 ng/mL
concentration at 48 h [4]: 1010 ng/mL
concentration at 72 h [1]: 169 ng/mL
concentration at 72 h [3]: 1800 ng/mL
concentration at 72 h [4]: 279 ng/mL
concentration at 0.5 h [5]: 27.7 ng/mL
concentration at 0.5 h [6]: 4.27 ng/mL
concentration at 1 h [5]: 11.4 ng/mL
concentration at 1 h [6]: 4.33 ng/mL
concentration at 1 h [7]: 8.87 ng/mL
concentration at 2 h (iris homogenate, subcutaneous, 5 mg/kg/dose, Iris homogenate, 2 hr, OD, free acid, subcutaneous 5 mg/kg/dose, Group 3, read-out: Iris Conc. (ng/mL) OD): 2.77 ng/mL
concentration at 2 h (iris homogenate, subcutaneous, 5 mg/kg/dose, Iris homogenate, 2 hr, OS, free acid, subcutaneous 5 mg/kg/dose, Group 3, read-out: Iris Conc. (ng/mL) OS): 2.68 ng/mL
concentration at 4 h (iris homogenate, subcutaneous, 5 mg/kg/dose, Iris homogenate, OD, free acid, subcutaneous 5 mg/kg/dose, Group 3, read-out: Iris Conc. (ng/mL) OD): 2.41 ng/mL
concentration at 4 hr [5]: 2.12 ng/mL
concentration at 4 h [6]: 1.54 ng/mL
concentration at 4 hr [7]: 3.1 ng/mL
concentration at 0.5 h [8]: 4.27 ng/mL
concentration at 1 h [8]: 4.33 ng/mL
concentration at 2 h (iris homogenate, subcutaneous, 5 mg/kg/dose, TABLE 16: Iris homogenate, 2 hr, OD, free acid, subcutaneous 5 mg/kg/dose, Group 3, read-out: Iris Conc. (ng/mL) OD): 2.77 ng/mL
concentration at 2 h (iris homogenate, subcutaneous, 5 mg/kg/dose, TABLE 16: Iris homogenate, 2 hr, OS, free acid, subcutaneous 5 mg/kg/dose, Group 3, read-out: Iris Conc. (ng/mL) OS): 2.68 ng/mL
concentration at 4 h (iris homogenate, subcutaneous, 5 mg/kg/dose, TABLE 16: Iris homogenate, OD, free acid, subcutaneous 5 mg/kg/dose, Group 3, read-out: Iris Conc. (ng/mL) OD): 2.41 ng/mL
concentration at 4 h [8]: 1.54 ng/mL
concentration at 6 h [9]: 390000 ng/g
concentration at 6 h [10]: 374000 ng/g
concentration at 6 h [11]: 211000 ng/g
concentration at 6 h [12]: 152000 ng/g
concentration at 6 h [13]: 204000 ng/g
concentration at 6 h [14]: 352000 ng/g
concentration at 24 h [9]: 75800 ng/g
concentration at 24 h [11]: 113000 ng/g
concentration at 24 h [12]: 155000 ng/g
concentration at 24 h [13]: 84400 ng/g
concentration at 24 h [14]: 141000 ng/g
concentration at 48 h [9]: 26200 ng/g
concentration at 48 h [10]: 21600 ng/g
concentration at 48 h [11]: 16800 ng/g
concentration at 48 h [12]: 21400 ng/g
concentration at 48 h [13]: 11100 ng/g
concentration at 48 h [14]: 24600 ng/g
concentration at 72 h [9]: 1860 ng/g
concentration at 72 h [11]: 10300 ng/g
concentration at 72 h [12]: 19800 ng/g
concentration at 72 h [13]: 3070 ng/g
concentration at 72 h [14]: 1550 ng/g
concentration at 0.5 h [15]: 305 ng/g
concentration at 0.5 h [16]: 47 ng/g
concentration at 0.5 h [17]: 50.3 ng/g
concentration at 0.5 h [18]: 459 ng/g
concentration at 1 h [15]: 125 ng/g
concentration at 1 h [16]: 47.6 ng/g
concentration at 1 h [19]: 97.6 ng/g
concentration at 1 h [17]: 58 ng/g
concentration at 1 h [18]: 94.7 ng/g
concentration at 2 h (iris, subcutaneous, 5 mg/kg/dose, Iris, 2 hr, OD, free acid, subcutaneous 5 mg/kg/dose, Group 3, read-out: Iris Conc. (ng/g) OD): 30.5 ng/g
concentration at 2 h (iris, subcutaneous, 5 mg/kg/dose, Iris, 2 hr, OS, free acid, subcutaneous 5 mg/kg/dose, Group 3, read-out: Iris Conc. (ng/g) OS): 29.5 ng/g
concentration at 2 h (iris, subcutaneous, 5 mg/kg/dose, Iris, 2 hr, free acid, subcutaneous 5 mg/kg/dose, Group 3, read-out: Iris Average): 27.6 ng/g
concentration at 2 hr (iris, subcutaneous, 5 mg/kg/dose, Iris, 2 hr, sodium salt, subcutaneous 5 mg/kg/dose, Group 2, read-out: Iris Average): 29.7 ng/g
concentration at 4 h (iris, subcutaneous, 5 mg/kg/dose, Iris, OD, free acid, subcutaneous 5 mg/kg/dose, Group 3, read-out: Iris Conc. (ng/g) OD): 26.5 ng/g
concentration at 4 hr [15]: 33.8 ng/g
concentration at 4 h [16]: 16.9 ng/g
concentration at 4 hr [19]: 34.1 ng/g
concentration at 4 h [17]: 17.5 ng/g
concentration at 4 hr [18]: 30.4 ng/g
concentration at 0.5 h [20]: 47 ng/g
concentration at 0.5 h [21]: 50.3 ng/g
concentration at 1 h [20]: 47.6 ng/g
concentration at 1 h [21]: 58 ng/g
SMILES: COC(=O)N[C@@H](Cc1ccccc1)C(=O)N[C@@H](Cc1ccc(NS(=O)(=O)O)cc1)c1csc(-c2cccs2)n1 [Compound 1]
